Measured values taken from article PMC6277767, “Broad and Region-Specific Impacts of the Synthetic Cannabinoid CP 55,940 in Adolescent and Adult Female Mouse Brains” (Frontiers in Molecular Neuroscience, 2018).

Test system: CD1 female mouse brain lipidome
Assay: Brain-region lipid levels (HPLC/MS/MS lipidomics) 2 h after single i.p. 3 mg/kg CP 55,940 vs vehicle
Format: in vivo
Design: N-arachidonoyl phenylalanine level, Mean / N-stearoyl tryptophan level, Mean / N-stearoyl proline level, Mean / N-stearoyl leucine level, Mean / N-stearoyl phenylalanine level, Mean / N-stearoyl serine level, Mean / N-stearoyl methionine level, Mean: unit: moles per gram
Procedure: The Bloomington Institutional Animal Care and Use Committee of Indiana University reviewed and approved the animal procedures. Female mice from the CD1 strain were utilized to match our study examining THC’s effects on the brain lipidome ([Leishman et al., 2018]). Mice were given a single i.p. injection of either 3 mg/kg CP or 1:1:18 cremophor:ethanol:saline vehicle (please refer to the section “3 mg/kg CP Is Relevant for Synthetic Cannabinoid Abuse and Has Stronger Effects on the Female Mouse Brain Lipidome During Adolescence” for a justification of dose and use of female mice). Three different age groups were given injections: PND 35 and PND 50 adolescents, and adult mice (PND 113). At least eight mice in each age group received CP and at least eight received vehicle. Matching the THC study time course ([Leishman et al., 2018]), mice were sacrificed via rapid decapitation 2 h after injection. Brains were immediately removed and flash-frozen in liquid nitrogen, and then stored at -80°C until dissections were performed. Brains were dissected on an ice-cold dissection plate into the following regions: STR, HIPP, CER, THAL, CTX, HYP, MID, and STEM. These abbreviations for these brain areas will be used exclusively when discussing the results generated by these specific dissections. Each dissected area was immediately placed in liquid nitrogen and then stored at -80°C until used for lipid extraction.
Tissue extracts were performed as previously described ([Bradshaw et al., 2006]; [Stuart et al., 2013]; [Raboune et al., 2014]; [Leishman et al., 2016a],[b], [2017], [2018]). First, samples were shock frozen in liquid nitrogen, weighed, and transferred to a centrifuge tube. The mass of the largest sample was multiplied by 50 to determine how many milliliters of HPLC-grade methanol (Fisher, Fair Lawn, NJ, United States) to add. Then, samples were spiked with 500 pmol deuterium-labeled NAGly (d8NAGly; Cayman Chemical, Ann Arbor, MI, United States). Samples were placed on ice in darkness for 2 h then individually homogenized and centrifuged at 19,000 × g for 20 min at 20°C. Supernatants were diluted with HPLC water (purified in house) to make a solution of 75% water, 25% supernatant. Lipids were partially purified on C18 solid phase extraction columns (Agilent, Palo Alto, CA, United States). A series of four elutions with 1.5 mL of 60%, 75%, 85%, and 100% methanol were collected ([Stuart et al., 2013]; [Leishman et al., 2016a],[b], [2018]).
As previously described ([Bradshaw et al., 2006]; [Tan et al., 2006]; [Smoum et al., 2010]; [Stuart et al., 2013]; [Tortoriello et al., 2013]; [Raboune et al., 2014]; [Leishman et al., 2016a],[b], [2017], [2018]), samples were analyzed using an Applied Biosystems API 3000 triple quadrupole mass spectrometer with electrospray ionization (Foster City, CA, United States). Using an Agilent XDB-C18 reversed phase analytical column and optimized mobile phase gradients, 20 μL from each elution were chromatographed. Two Shimadzu 10ADvp pumps (Columbia, MD, United States) provided the pressure for gradient elution. Mobile phase A: 20% methanol, 80% water (v/v) and 1 mM ammonium acetate (Sigma, St. Louis, MO, United States). Mobile phase B: 100% methanol, 1 mM ammonium acetate. Every method run began with 0% mobile phase B, reached 100% mobile phase B flowing at 0.2 mL/min, and gradually returned to 0% mobile phase B.
This screening library will be referred to as the lipidome when discussing data from this study. HPLC/MS/MS data were analyzed using Analyst software (Applied Biosystems) ([Bradshaw et al., 2006]; [Tan et al., 2006]; [Stuart et al., 2013]; [Tortoriello et al., 2013]; [Raboune et al., 2014]; [Leishman et al., 2016a],[b], [2017], [2018]). Chromatograms (Supplementary Figure 3) were generated by determining the retention time of analytes from the analytical column with a [M-1] or [M+1] parent peak and a fragmentation peak corresponding to the programmed values. […]

[1] = adult brainstem, 3mg/kg CP 55,940

CCCCCCC(C)(C)c1ccc([C@@H]2C[C@H](O)CC[C@H]2CCCO)c(O)c1 [CP 55,940]
N-stearoyl serine level vs vehicle (adult HIPP): ↓ (1-1.49 times lower than vehicle) | PGE2 level vs vehicle (adult HIPP): ↑ (1-1.49 times higher than vehicle) | PGE2 mean level in CP group divided by vehicle group (adult HIPP): 1.18 | PGF2α level vs vehicle (adult HIPP): ↑ (1-1.49 times higher than vehicle) | number of lipids changed (adult HIPP): 12 | phosphoLEA level vs vehicle (adult HIPP): ↑ (1-1.49 times higher than vehicle) | PGE2 mean level (adult HIPP, CP group): 3.37x10^-10 moles per gram | 6-ketoPGF1α level vs vehicle (adult HYP): ↓↓ (1.50-1.99 times lower than vehicle) | N-arachidonoyl GABA level vs vehicle (adult HYP): ↓ (1-1.49 times lower than vehicle) | N-arachidonoyl taurine level vs vehicle (adult HYP): ↑ (1-1.49 times higher than vehicle) | N-palmitoyl phenylalanine level vs vehicle (adult HYP): ↑↑ (1.50-1.99 times higher than vehicle) | PGE2 level vs vehicle (adult HYP): ↑ (1-1.49 times higher than vehicle) | PGF2α level vs vehicle (adult HYP): ↓ (1-1.49 times lower than vehicle) | number of lipids changed (adult HYP): 7 | phosphoLEA level vs vehicle (adult HYP): ↓ (1-1.49 times lower than vehicle) | 2-arachidonoyl glycerol level vs vehicle (adult MID): ↓ (1-1.49 times lower than vehicle) | 2-linoleoyl glycerol level vs vehicle (adult MID): ↓ (1-1.49 times lower than vehicle) | 2-oleoyl glycerol level vs vehicle (adult MID): ↓ (1-1.49 times lower than vehicle) | 6-ketoPGF1α level vs vehicle (adult MID): ↑ (1-1.49 times higher than vehicle) | Arachidonic acid level vs vehicle (adult MID): ↓ (1-1.49 times lower than vehicle) | N-arachidonoyl ethanolamine level vs vehicle (adult MID): ↓ (1-1.49 times lower than vehicle) | N-arachidonoyl serine level vs vehicle (adult MID): ↓↓ (1.50-1.99 times lower than vehicle) | N-linoleoyl glycine level vs vehicle (adult MID): ↓↓ (1.50-1.99 times lower than vehicle) | N-linoleoyl serine level vs vehicle (adult MID): ↓ (1-1.49 times lower than vehicle) | N-palmitoyl ethanolamine level vs vehicle (adult MID): ↓ (1-1.49 times lower than vehicle) | N-stearoyl ethanolamine level vs vehicle (adult MID): ↑ (1-1.49 times higher than vehicle) | PGE2 level vs vehicle (adult MID): ↑ (1-1.49 times higher than vehicle) | changes in lipid levels that were decreases (adult MID): 10 | changes in lipid levels that were increases (adult MID): 3 | percentage of lipids detected that decreased (adult MID): 18.52% | percentage of lipids detected that increased (adult MID): 5.55% | phosphoLEA level vs vehicle (adult MID): ↓ (1-1.49 times lower than vehicle) | number of lipids changed (adult MID, 54 detected): 13 | 2-arachidonoyl glycerol level vs vehicle (adult STEM): ↓ (1-1.49 times lower than vehicle) | 2-linoleoyl glycerol level vs vehicle (adult STEM): ↓ (1-1.49 times lower than vehicle) | 2-oleoyl glycerol level vs vehicle (adult STEM): ↓ (1-1.49 times lower than vehicle) | 2-palmitoyl glycerol level vs vehicle (adult STEM): ↓ (1-1.49 times lower than vehicle) | Arachidonic acid level vs vehicle (adult STEM): ↓ (1-1.49 times lower than vehicle) | Linoleic acid level vs vehicle (adult STEM): ↓ (1-1.49 times lower than vehicle) | N-arachidonoyl taurine level vs vehicle (adult STEM): ↓ (1-1.49 times lower than vehicle) | N-arachidonoyl tyrosine level vs vehicle (adult STEM): ↓↓ (1.50-1.99 times lower than vehicle) | N-oleoyl ethanolamine level vs vehicle (adult STEM): ↓ (1-1.49 times lower than vehicle) | N-palmitoyl leucine level vs vehicle (adult STEM): ↑ (1-1.49 times higher than vehicle) | N-palmitoyl valine level vs vehicle (adult STEM): ↑ (1-1.49 times higher than vehicle) | Oleic Acid level vs vehicle (adult STEM): ↓ (1-1.49 times lower than vehicle) | PGE2 level vs vehicle (adult STEM): ↓ (1-1.49 times lower than vehicle) | number of lipids changed (adult STEM): 13 | 2-arachidonoyl glycerol level vs vehicle (adult STR): ↓ (1-1.49 times lower than vehicle) | Arachidonic acid level vs vehicle (adult STR): ↓ (1-1.49 times lower than vehicle) | N-arachidonoyl ethanolamine level vs vehicle (adult STR): ↓↓ (1.50-1.99 times lower than vehicle) | N-docosahexaenoyl ethanolamine level vs vehicle (adult STR): ↓ (1-1.49 times lower than vehicle) | N-linoleoyl ethanolamine level vs vehicle (adult STR): ↓ (1-1.49 times lower than vehicle) | N-oleoyl ethanolamine level vs vehicle (adult STR): ↓↓ (1.50-1.99 times lower than vehicle) | N-oleoyl leucine level vs vehicle (adult STR): ↑ (1-1.49 times higher than vehicle) | N-palmitoyl serine level vs vehicle (adult STR): ↓ (1-1.49 times lower than vehicle) | number of lipids changed (adult STR): 8 | 2-arachidonoyl glycerol level vs vehicle (adult THAL): ↓ (1-1.49 times lower than vehicle) | 2-linoleoyl glycerol level vs vehicle (adult THAL): ↓ (1-1.49 times lower than vehicle) | 6-ketoPGF1α level vs vehicle (adult THAL): ↑ (1-1.49 times higher than vehicle) | Arachidonic acid level vs vehicle (adult THAL): ↓ (1-1.49 times lower than vehicle) | N-arachidonoyl GABA level vs vehicle (adult THAL): ↓ (1-1.49 times lower than vehicle) | N-arachidonoyl alanine level vs vehicle (adult THAL): ↓↓ (1.50-1.99 times lower than vehicle) | N-arachidonoyl ethanolamine level vs vehicle (adult THAL): ↓ (1-1.49 times lower than vehicle) | N-arachidonoyl glycine level vs vehicle (adult THAL): ↓↓ (1.50-1.99 times lower than vehicle) | N-oleoyl ethanolamine level vs vehicle (adult THAL): ↓ (1-1.49 times lower than vehicle) | N-palmitoyl GABA level vs vehicle (adult THAL): ↑ (1-1.49 times higher than vehicle) | N-palmitoyl ethanolamine level vs vehicle (adult THAL): ↓ (1-1.49 times lower than vehicle) | N-palmitoyl leucine level vs vehicle (adult THAL): ↑ (1-1.49 times higher than vehicle) | N-palmitoyl methionine level vs vehicle (adult THAL): ↑ (1-1.49 times higher than vehicle) | N-palmitoyl valine level vs vehicle (adult THAL): ↑↑ (1.50-1.99 times higher than vehicle) | Oleic Acid level vs vehicle (adult THAL): ↓ (1-1.49 times lower than vehicle) | number of lipids changed (adult THAL): 15 | changes in PG levels (adult brain): 14 | changes in lipoamines derived from AA (adult brain): 20 | decreases in 2-acyl glycerol levels (adult brain): 15 | decreases in PG levels (adult brain): 8 | decreases in free fatty acid levels (adult brain): 11 | increases in PG levels (adult brain): 6 | percentage of detected lipids modified with acute CP (adult brain, 406 detected): 23.89% | 2-arachidonoyl glycerol, Direction (relative to Veh) [1]: ↓ | 2-arachidonoyl glycerol, Magnitude (x Veh level) [1]: 0.78 x Veh level | 2-linoleoyl glycerol Direction (relative to Veh) [1]: ↓ | 2-linoleoyl glycerol Magnitude (x Veh level) [1]: 0.76 x Veh level | 2-oleoyl glycerol, Direction (relative to Veh) [1]: ↓ | 2-oleoyl glycerol, Magnitude (x Veh level) [1]: 0.82 x Veh level | 2-palmitoyl glycerol, Direction (relative to Veh) [1]: ↓ | 2-palmitoyl glycerol, Magnitude (x Veh level) [1]: 0.80 x Veh level | Arachidonic acid, Direction (relative to Veh) [1]: ↓ | Arachidonic acid, Magnitude (x Veh level) [1]: 0.86 x Veh level | Linoleic acid, Direction (relative to Veh) [1]: ↓ | Linoleic acid, Magnitude (x Veh level) [1]: 0.71 x Veh level | N-arachidonoyl GABA level, Mean [1]: 1.08E-11 | N-arachidonoyl alanine level, Mean [1]: 9.45E-13 | N-arachidonoyl dopamine level, Mean [1]: BDL | N-arachidonoyl ethanolamine level, Mean [1]: 1.14E-11 | N-arachidonoyl glycine level, Mean [1]: 1.87E-12 | N-arachidonoyl phenylalanine level, Mean [1]: 5.84E-14 | N-arachidonoyl taurine Direction (relative to Veh) [1]: ↓ | N-arachidonoyl taurine Magnitude (x Veh level) [1]: 0.94 x Veh level | N-arachidonoyl tyrosine, Direction (relative to Veh) [1]: ↓ | N-arachidonoyl tyrosine, Magnitude (x Veh level) [1]: 0.66 x Veh level | N-docosahexaenoyl GABA level, Mean [1]: 7.61E-12
